Test results published in ChEMBL document CHEMBL5113483, “Design and synthesis of NAD(P)H: Quinone oxidoreductase (NQO1)-activated prodrugs of 23-hydroxybetulinic acid with enhanced antitumor properties” (Eur J Med Chem, 2022).

Legend:
HT-29 [1] = assay: Induction of apoptosis in human HT-29 cells assessed as viable cells at 1 uM incubated for 48 hrs by Annexin V-FITC/PI staining based flow cytometry analysis (Rvb= 96.54%); type: functional; conditions: read-out: Activity
HT-29 [2] = assay: Induction of cell cycle arrest in human HT-29 cells assessed as accumulation of cells at S phase at 2 uM incubated for 48 hrs by RNaeA/propidium iodide based flow cytometry analysis (reference value: 23.06 %); type: functional
[3] = Toxicity in […] xenografted with human HT-29 cells overexpressing NQO-1 assessed as reduction in body weight at 30 mg/kg, ip administered for 21 days and measured every 2 days; type: organism-based; conditions: in vivo, 504 h, time 21 day
HT-29 [4] = assay: Induction of cell cycle arrest in human HT-29 cells assessed as accumulation of cells at G2 phase at 1 uM incubated for 48 hrs by RNaeA/propidium iodide based flow cytometry analysis (reference value: 13.96 %); type: functional
HT-29 [5] = assay: Induction of apoptosis in human HT-29 cells assessed as upregulation of caspase-3 protein expression incubated for 48 hrs by Western blot analysis; type: functional, cell-based; conditions: dose 1-4 µM, DDE = dose-dependent effect
HT-29 [6] = assay: Induction of apoptosis in human HT-29 cells assessed as late apoptotic cells at 1 uM incubated for 48 hrs by Annexin V-FITC/PI staining based flow cytometry analysis (Rvb= 1.04%); type: functional
HT-29 [7] = assay: Induction of cell cycle arrest in human HT-29 cells assessed as accumulation of cells at G1 phase at 4 uM incubated for 48 hrs by RNaeA/propidium iodide based flow cytometry analysis (reference value: 62.98 %); type: functional
HT-29 [8] = assay: Induction of apoptosis in human HT-29 cells assessed as early apoptotic cells at 1 uM incubated for 48 hrs by Annexin V-FITC/PI staining based flow cytometry analysis (Rvb= 2.41%); type: functional
HT-29 [9] = assay: Induction of apoptosis in human HT-29 cells assessed as late apoptotic cells at 4 uM incubated for 48 hrs by Annexin V-FITC/PI staining based flow cytometry analysis (Rvb= 1.04%); type: functional
HT-29 [10] = assay: Induction of cell cycle arrest in human HT-29 cells assessed as accumulation of cells at S phase at 1 uM incubated for 48 hrs by RNaeA/propidium iodide based flow cytometry analysis (reference value: 23.06 %); type: functional
HT-29 [11] = assay: Induction of cell cycle arrest in human HT-29 cells assessed as accumulation of cells at G2 phase at 4 uM incubated for 48 hrs by RNaeA/propidium iodide based flow cytometry analysis (reference value: 13.96 %); type: functional
HT-29 [12] = assay: Induction of mitochondrial membrane potential loss in human HT-29 cells assessed as healthy cells at 4 uM incubated for 48 hrs by JC-1 staining based flow cytometry analysis (reference value: 93.4 %); type: functional
HT-29 [13] = assay: Antitumor activity against human HT-29 cells overexpressing NQO-1 xenografted in ICR mouse assessed as reduction in tumor weight at 30 mg/kg, ip administered every day for 21 days and measured every 2 days relative to control; type: functional; design: scale not given: the % may be the effect or the level left; conditions: time 21 day
HT-29 [14] = assay: Induction of cell cycle arrest in human HT-29 cells assessed as accumulation of cells at G1 phase at 1 uM incubated for 48 hrs by RNaeA/propidium iodide based flow cytometry analysis (reference value: 62.98 %); type: functional
NCI-H596 = assay: Antiproliferative activity against NQO1-deficient human NCI-H596 cells assessed as inhibition of cell growth incubated for 72 hrs by MTT assay; type: functional, cell-based; conditions: NCI-H596, 72 h
[15] = target: NAD(P)H dehydrogenase [quinone] 1 (Homo sapiens) (UniProt P15559); assay: Substrate activity at lyophilized human NQO1 assessed as compound decomposition measured after 6 hrs by HPLC analysis
Chain of NAD(P)H dehydrogenase [quinone] 1 (Homo sapiens) (P15559 whole entry): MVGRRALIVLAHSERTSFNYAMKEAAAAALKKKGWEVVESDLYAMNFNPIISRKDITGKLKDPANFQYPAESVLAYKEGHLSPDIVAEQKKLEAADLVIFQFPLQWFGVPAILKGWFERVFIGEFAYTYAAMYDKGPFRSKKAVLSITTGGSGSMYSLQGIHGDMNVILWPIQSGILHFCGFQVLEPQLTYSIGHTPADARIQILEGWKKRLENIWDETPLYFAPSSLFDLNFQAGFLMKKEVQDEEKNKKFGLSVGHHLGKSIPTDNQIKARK

[16] = Cytotoxicity against human HFL1 cells assessed as inhibition of cell growth incubated for 72 hrs by MTT assay; type: toxicity, cell-based
HT-29 [17] = assay: Induction of apoptosis in human HT-29 cells assessed as late apoptotic cells at 2 uM incubated for 48 hrs by Annexin V-FITC/PI staining based flow cytometry analysis (Rvb= 1.04%); type: functional
HT-29 [18] = assay: Induction of apoptosis in human HT-29 cells assessed as upregulation of cytochrome C protein expression incubated for 48 hrs by Western blot analysis; type: functional, cell-based; conditions: dose 1-4 µM, DDE = dose-dependent effect
HT-29 [19] = assay: Induction of cell cycle arrest in human HT-29 cells assessed as accumulation of cells at S phase at 4 uM incubated for 48 hrs by RNaeA/propidium iodide based flow cytometry analysis (reference value: 23.06 %); type: functional
HT-29 [20] = assay: Induction of mitochondrial membrane potential loss in human HT-29 cells assessed as healthy cells at 1 uM incubated for 48 hrs by JC-1 staining based flow cytometry analysis (reference value: 93.4 %); type: functional
HT-29 [21] = assay: Antitumor activity against human HT-29 cells overexpressing NQO-1 xenografted in ICR mouse assessed as reduction in tumor weight at 15 mg/kg, ip administered every day for 21 days and measured every 2 days relative to control; type: functional; design: scale not given: the % may be the effect or the level left; conditions: time 21 day
HT-29 [22] = assay: Induction of apoptosis in human HT-29 cells assessed as dead cells at 2 uM incubated for 48 hrs by Annexin V-FITC/PI staining based flow cytometry analysis (Rvb= 0.01%); type: functional
A549 = assay: Antiproliferative activity against human A549 cells overexpressing NQO1 assessed as inhibition of cell growth incubated for 72 hrs by MTT assay; type: functional, cell-based; conditions: A549, 72 h
HT-29 [23] = assay: Induction of oxidative stress in human HT-29 cells assessed as increase in intracellular ROS generation incubated for 48 hrs by DCF-DA fluorescent probe based flow cytometry analysis; type: functional, cell-based; conditions: dose 1-4 µM, DDE = dose-dependent effect
[24] = Stability of compound in TRIS buffer at pH 7.4 assessed as compound remaining measured after 60 hrs by HPLC analysis; type: physicochemical; conditions: read-out: Stability
[25] = Selectivity index, ratio of IC50 for antiproliferative activity against human HT-29 cells overexpressing NQO1 in presence of dicoumarol to antiproliferative activity against human HT-29 cells overexpressing NQO1; type: functional
[26] = Selectivity index, ratio of IC50 for antiproliferative activity against NQO1-deficient human NCI-H596 cells to IC50 for antiproliferative activity against human HT-29 cells overexpressing NQO1; type: functional
[27] = target: NAD(P)H dehydrogenase [quinone] 1 (Homo sapiens) (UniProt P15559); assay: Substrate activity at lyophilized human NQO1 assessed as compound decomposition measured after 60 hrs by HPLC analysis
HT-29 [28] = assay: Antiproliferative activity against human HT-29 cells overexpressing NQO1 assessed as inhibition of cell growth incubated for 72 hrs by MTT assay; type: functional, cell-based; conditions: HT-29, 72 h
HT-29 [29] = assay: Antiproliferative activity against human HT-29 cells overexpressing NQO1 assessed as inhibition of cell growth preincubated with NQO1 inhibitor, dicoumarol for 30 mins followed by compound addition and measured after 72 hrs by MTT assay; type: functional, cell-based
HT-29 [30] = assay: Induction of apoptosis in human HT-29 cells assessed as dead cells at 1 uM incubated for 48 hrs by Annexin V-FITC/PI staining based flow cytometry analysis (Rvb= 0.01%); type: functional
HT-29 [31] = assay: Induction of apoptosis in human HT-29 cells assessed as viable cells at 4 uM incubated for 48 hrs by Annexin V-FITC/PI staining based flow cytometry analysis (Rvb= 96.54%); type: functional; conditions: read-out: Activity
HT-29 [32] = assay: Induction of apoptosis in human HT-29 cells assessed as dead cells at 4 uM incubated for 48 hrs by Annexin V-FITC/PI staining based flow cytometry analysis (Rvb= 0.01%); type: functional

With C=C(C)[C@@H]1CC[C@]2(C(=O)OCCOC(=O)CCC(=O)OCc3cn(C)c4c3C(=O)C(OC)=CC4=O)CC[C@]3(C)[C@H](CC[C@@H]4[C@@]5(C)CC[C@H](O)[C@@](C)(CO)[C@@H]5CC[C@]43C)[C@@H]12 the viability at 1 µM (HT-29 [1]) was 75.5%, the Activity (HT-29 [2]) was 22.1% and the Activity [3] was “Non-Toxic”. For the same compound, the Activity (HT-29 [4]) was 20.54%, the Activity (HT-29 [5]) was “Dde” and the Activity (HT-29 [6]) was 9.81%. The Activity (HT-29 [7]) was 39.61%, the Activity (HT-29 [8]) was 12.54% and the Activity (HT-29 [9]) was 22.58%. The Activity (HT-29 [10]) was 23.02%, the Activity (HT-29 [11]) was 32.73% and the Activity (HT-29 [12]) was 55.52%. It also gave an Activity (HT-29 [13]) of 72.69%, an Activity (HT-29 [14]) of 56.44% and an IC50 (NCI-H596) of 7.78 µM. The Activity [15] was 50%, the IC50 at 72 h [16] was 6.45 µM and the Activity (HT-29 [17]) was 16.77%. The Activity (HT-29 [18]) was “Dde”, the Activity (HT-29 [19]) was 27.66% and the Activity (HT-29 [20]) was 79.07%. It also gave an Activity (HT-29 [21]) of 55.89%, an Activity (HT-29 [22]) of 5.03% and an IC50 (A549) of 2.36 µM. The Activity (HT-29 [23]) was “Dde”, the remaining at 60 h [24] was 80% and the “Ratio IC50” value [25] was 4.9. For the same compound, the “Ratio IC50” value [26] was 3.44, the Activity [27] was 100% and the IC50 (HT-29 [28]) was 1.87 µM. The IC50 (HT-29 [29]) was 9.22 µM, the Activity (HT-29 [30]) was 2.16% and the viability at 4 µM (HT-29 [31]) was 38.4%. The Activity (HT-29 [32]) was 6.74%.
